Laboratory results taken from patent US9060971B2, “Combination pharmaceutical agents as inhibitors of HCV replication” (Enanta Pharmaceuticals, Inc., priority 2010, dated 2015).

What was measured:
[1] = tested on: HCV 1b genotype replicon; assay: HCV replicon drug screening assay (quantitative RT-PCR or luciferase), genotype 1b; type: cell-based; conditions: Hepatitis C virus; HCV 1b genotype replicon; quantitative RT-PCR or luciferase assay; read-out: Genotype-1b replicon EC50 Range
Outline: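 Huh-derived subgenomic genotype 1b replicon lines (SGR 11-7, neo; Huh-luc/neo-ET, firefly luciferase with adaptive mutations) grown at 37 °C. EC50 from HCV RNA by TaqMan one-step qRT-PCR normalised to GAPDH RNA. Cytotoxicity measured in parallel by MTS.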

[2] = tested on: "Huh-luc/neo-ET" HCV replicon; assay: In vitro synergy assay, two drug combinations, luciferase, Bliss additivity; type: cell-based; conditions: 72 h
Description: The coding sequence of the published HCV replicon was synthesized and subsequently assembled in a modified plasmid pBR322 (Promega, Madison, Wis.) using standard molecular biology techniques. One replicon cell line (“SGR 11-7”) stably expresses HCV replicon RNA which consists of (i) the HCV 5′UTR fused to the first 12 amino acids of the capsid protein, (ii) the neomycin phosphotransferase gene (neo), (iii) the IRES from encephalomyocarditis virus (EMCV), and (iv) HCV NS2 to NS5B genes and the HCV 3′UTR. Another replicon cell line (“Huh-luc/neo-ET”) described by Vrolijk et. al. (Vrolijk et. al. (2003) Journal of Virological Methods 110:201-209, expressly incorporated by reference in its entirety) stably expresses HCV replicon RNA which consists of (i) the HCV 5′UTR fused to the first 12 amino acids of the capsid protein, (ii) the firefly luciferase reporter gene, (iii) the ubiquitin gene, (iv) the neomycin phosphotransferase gene (neo), (v) the IRES from encephalomyocarditis virus (EMCV), and (vi) HCV NS3 to NS5B genes that harbor cell culture adaptive mutations (E1202G, T12801, K1846T) and the HCV 3′UTR.
Since clinical drug resistance often develops in viral infections following single agent therapies, there is a need to assess the additive, antagonistic, or synergistic properties of combination therapies. We used the HCV replicon system to assess the potential use of our NS5A inhibitors in combination therapies with Interferon alpha, cyclosporine analogs and inhibitors targeting other HCV proteins. The acute effects of combinations of drugs were studied in the “Huh-luc/neo-ET” replicon with each chemical agent titrated in an X or Y direction in a 6 point two-fold dilution curve centered around the EC50 of each drug. Briefly, replicon cells were seeded at 7,000 cells per well in 90 ul DMEM (without phenol red, Invitrogen Cat. #31053-036) per well with 10% FCS, 1% non-essential amino acids, 1% of Glutamax and 1% of 100× penicillin/streptomycin and incubated overnight at 37° C., 5% C02, 100% relative humidity. 16-20 h after seeding cells, test compounds previously solubilized and titrated in dimethyl sulfoxide (“DMSO”) from each X plate and Y plate were diluted 1:100 in DMEM (without phenol red, Invitrogen Cat. #31053-036) with 10% FCS, 1% non-essential amino acids, 1% of Glutamax and 1% of 100× penicillin/streptomycin and added directly to the 96-well plate containing cells and growth medium at a 1:10 dilution for a final dilution of compound and DMSO of 1:1000 ([…] final concentration). Drug treated cells were incubated at 37° C., 5% C02, 100% relative humidity for 72 hours before performing a luciferase assay using 100 ul per well BriteLite Plus (Perkin Elmer) according to the manufacturer's instructions. Data analysis utilizes the method published by Prichard and Shipman (Antiviral Research, 1990. 14:181-205). Using this method, the combination data were analyzed for antagonistic, additive, or synergistic combination effects across the entire combination surface created by the diluted compounds in combination.
We used the HCV replicon system to assess the potential use of our NS5A inhibitor in combination therapies with Interferon alpha, cyclosporine analogs or inhibitors targeting other HCV proteins. Several HCV antivirals, including protease inhibitors (ITMN-191, SCH503034, VX-950), a nucleoside analog (such as those described in WO01/90121(A2), U.S. Pat. No. 6,348,587B1, WO01/60315 or WO01/32153), a nonnucleoside NS5B polymerase inhibitor (GSK625433), a cyclosporine analog, as well as Interferon alpha, are tested in combination with Compounds 90, 93 or 95 herein, inhibitors of HCV NS5A. Antivirals were tested at five concentrations each, diluted in DMSO by 2-fold dilutions. The antivirals were tested as monotherapies and in combination with Compounds 90, 93 or 95 (described herein) at various concentration ratios. […]

[3] = in combination with Boceprevir (SCH503034)
[4] = in combination with Cyclosporine analog
[5] = in combination with Interferon-alpha
[6] = in combination with Telaprevir (VX-950)

Row | Compound | EC50 [1] | Bliss Volume (%) at 95% Confidence Intervals, Antagonism [2, 3] | Bliss Volume (%) at 95% Confidence Intervals, Synergy [2, 3] | Result (combination effect) [2, 3] | Synergy Score [2, 3] | Bliss Volume (%) at 95% Confidence Intervals, Antagonism ([2]; in combination with GSK625433) | Bliss Volume (%) at 95% Confidence Intervals, Synergy ([2]; in combination with GSK625433) | Result (combination effect) ([2]; in combination with GSK625433) | Synergy Score ([2]; in combination with GSK625433) | Bliss Volume (%) at 95% Confidence Intervals, Antagonism ([2]; in combination with ITMN-191) | Bliss Volume (%) at 95% Confidence Intervals, Synergy ([2]; in combination with ITMN-191) | Result (combination effect) ([2]; in combination with ITMN-191) | Synergy Score ([2]; in combination with ITMN-191) | Bliss Volume (%) at 95% Confidence Intervals, Antagonism [2, 5] | Bliss Volume (%) at 95% Confidence Intervals, Synergy [2, 5] | Result (combination effect) [2, 5] | Synergy Score [2, 5] | Bliss Volume (%) at 95% Confidence Intervals, Antagonism ([2]; in combination with R7128) | Bliss Volume (%) at 95% Confidence Intervals, Synergy ([2]; in combination with R7128) | Result (combination effect) ([2]; in combination with R7128) | further results
1 | COC(=O)N[C@H](C(=O)N1CCC[C@H]1c1ncc(-c2ccc(C#Cc3ccc4nc([C@@H]5CCCN5C(=O)[C@@H](NC(=O)OC)C(C)C)[nH]c4c3)cc2)[nH]1)C(C)C [Compound 90] | < 1 nM | 0% | 48% | Synergistic | 48% | −1% | 12% | Additive | 11% | −9% | 2% | Additive | −7% | −14% | 6% | Additive | −8% | 0% | 34% | Synergistic | Bliss Volume (%) at 95% Confidence Intervals, Antagonism [2, 4]: 0%; Bliss Volume (%) at 95% Confidence Intervals, Synergy [2, 4]: 0%; Result (combination effect) [2, 4]: Additive; Synergy Score [2, 4]: 0%; Synergy Score ([2]; in combination with R7128): 34%; Bliss Volume (%) at 95% Confidence Intervals, Antagonism [2, 6]: −1%; Bliss Volume (%) at 95% Confidence Intervals, Synergy [2, 6]: 0%; Result (combination effect) [2, 6]: Additive; Synergy Score [2, 6]: −1%
2 | COC(=O)N[C@H](C(=O)N1CCC[C@H]1c1nc(-c2ccc(C#Cc3ccc4[nH]c([C@@H]5CC6(CC6)CN5C(=O)[C@@H](NC(=O)OC)C(C)C)nc4c3)cc2)c[nH]1)C(C)C [Compound 93] | < 1 nM | 0% | 63% | Synergistic | 63% | 0% | 113% | Synergistic | 113% | 0% | 14% | Additive | 14% | 0% | 38% | Synergistic | 38% | 0% | 14% | Additive | Synergy Score ([2]; in combination with R7128): 14%; Bliss Volume (%) at 95% Confidence Intervals, Antagonism [2, 6]: 0%; Bliss Volume (%) at 95% Confidence Intervals, Synergy [2, 6]: 7%; Result (combination effect) [2, 6]: Additive; Synergy Score [2, 6]: 7%
3 | COC(=O)N[C@H](C(=O)N1CC2(CC2)C[C@H]1c1nc(-c2ccc(C#Cc3ccc4[nH]c([C@@H]5CC6(CC6)CN5C(=O)[C@@H](NC(=O)OC)C(C)C)nc4c3)cc2)c[nH]1)C(C)C [Compound 95] | < 1 nM | 0% | 44% | Synergistic | 44% | 0% | 0% | Additive | 0% | 0% | 5% | Additive | 5% | −2% | 0% | Additive | −2% | 0% | 28% | Synergistic | Synergy Score ([2]; in combination with R7128): 28%; Bliss Volume (%) at 95% Confidence Intervals, Antagonism [2, 6]: 0%; Bliss Volume (%) at 95% Confidence Intervals, Synergy [2, 6]: 5%; Result (combination effect) [2, 6]: Additive; Synergy Score [2, 6]: 5%
4 | COC(=O)N[C@H](C(=O)N1CCC[C@H]1c1nc(-c2ccc(C#Cc3ccc4[nH]c([C@@H]5[C@H]6CC[C@H](C6)N5C(=O)[C@@H](NC(=O)OC)C(C)C)nc4c3)cc2)c[nH]1)C(C)C [Compound 123] | < 1 nM |  |  |  |  |  |  |  |  |  |  |  |  |  |  |  |  |  |  |  | 
5 | COC(=O)N[C@H](C(=O)N1CCC[C@H]1c1nc(-c2ccc(-c3ccc(-c4ccc5[nH]c([C@@H]6[C@H]7CC[C@H](C7)N6C(=O)[C@@H](NC(=O)OC)C(C)C)nc5c4)cc3)cc2)c[nH]1)C(C)C [Compound 124] | < 1 nM |  |  |  |  |  |  |  |  |  |  |  |  |  |  |  |  |  |  |  | 
6 | COC(=O)N[C@H](C(=O)N1CCC[C@H]1c1ncc(-c2ccc(C#Cc3ccc4nc([C@@H]5C6CCC(CC6)N5C(=O)[C@@H](NC(=O)OC)C(C)C)[nH]c4c3)cc2)[nH]1)C(C)C [Compound 125] | < 1 nM |  |  |  |  |  |  |  |  |  |  |  |  |  |  |  |  |  |  |  | 
7 | COC(=O)N[C@H](C(=O)N1[C@@H]2CC[C@@H](C2)[C@H]1c1nc(-c2ccc(C#Cc3ccc4[nH]c([C@@H]5[C@H]6CC[C@H](C6)N5C(=O)[C@@H](NC(=O)OC)C(C)C)nc4c3)cc2)c[nH]1)C(C)C [Compound 126] | < 1 nM |  |  |  |  |  |  |  |  |  |  |  |  |  |  |  |  |  |  |  | 
8 | COC(=O)N[C@H](C(=O)N1CCC[C@H]1c1nc(-c2ccc3cc(-c4ccc5[nH]c([C@@H]6[C@H]7CC[C@H](C7)N6C(=O)[C@@H](NC(=O)OC)C(C)C)nc5c4)ccc3c2)c[nH]1)C(C)C [Compound 129] | < 1 nM |  |  |  |  |  |  |  |  |  |  |  |  |  |  |  |  |  |  |  | 
9 | CON=C1C[C@@H](c2nc3cc(C#Cc4ccc(-c5c[nH]c([C@@H]6CCCN6C(=O)[C@@H](NC(=O)OC)C(C)C)n5)cc4)ccc3[nH]2)N(C(=O)[C@@H](NC(=O)OC)C(C)C)C1 [Compound 131] | < 1 nM |  |  |  |  |  |  |  |  |  |  |  |  |  |  |  |  |  |  |  | 
